# In ChEMBL document CHEMBL1201862, “PubChem BioAssay data set” (2004):
#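 Dose response: 5 concentrations. Exposure: 48 h. Format: 96-well plates. Endpoint: linear interpolation; highest concentration if not reached. GI50 is the concentration that inhibits growth by half.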 The source made the active and inactive calls. No stated cut-off is given here; in the data, active = GI50 up to about 1.1 µM and inactive = higher.
# Legend:
# Assay in all cases: growth of human tumour cells (NCI), 48 h
# A498 = system: A498
# SK-OV-3 = system: SK-OV-3
# RPMI-8226 = system: RPMI-8226
# T47D = system: T47D
# PC-3 = system: PC-3
# MDA-MB-435 = system: MDA-MB-435
# CAKI-1 = system: CAKI-1
# 786-0 = system: 786-0
# SK-MEL-28 = system: SK-MEL-28
# COLO 205 = system: COLO 205
# EKVX = system: EKVX
# TK-10 = system: TK-10
# DU-145 = system: DU-145
# Malme-3M = system: Malme-3M
# OVCAR-3 = system: OVCAR-3
# UACC-62 = system: UACC-62
# CCRF-CEM = system: CCRF-CEM
# MDA-MB-231 = system: MDA-MB-231
# OVCAR-8 = system: OVCAR-8
# HL-60 = system: HL-60
# SW-620 = system: SW-620
# SK-MEL-5 = system: SK-MEL-5
# LOX IMVI = system: LOX IMVI
# SR = system: SR
# ACHN = system: ACHN
# A549 = system: A549
# HCC 2998 = system: HCC 2998
# M14 = system: M14
# KM12 = system: KM12
# UACC-257 = system: UACC-257
# BT-549 = system: BT-549
# SN12C = system: SN12C
# HOP-92 = system: HOP-92
# SK-MEL-2 = system: SK-MEL-2
# MOLT-4 = system: MOLT-4
# HOP-62 = system: HOP-62
# MCF7 = system: MCF7
# RXF 393 = system: RXF 393
# SF-295 = system: SF-295
# HCT-116 = system: HCT-116
# NCI-H460 = system: NCI-H460
# IGROV-1 = system: IGROV-1
# U-251 = system: U-251
# SNB-75 = system: SNB-75
# K562 = system: K562
# SF-268 = system: SF-268
# OVCAR-5 = system: OVCAR-5
# Hs-578T = system: Hs-578T
# NCI-H23 = system: NCI-H23
# SNB-19 = system: SNB-19
# HCT-15 = system: HCT-15
# MDA-N = system: MDA-N
# UO-31 = system: UO-31
# NCI-H522 = system: NCI-H522
# SF-539 = system: SF-539
# HT-29 = system: HT-29
# NCI/ADR-RES = system: NCI/ADR-RES
smiles,measurement,setting,value
CCOC(=O)c1ccc(Nc2nc3ccccc3n3cccc23)cc1,GI50,A498,46 µM (inactive)
same,GI50,SK-OV-3,27.4 µM (inactive)
same,GI50,RPMI-8226,> 100 µM (inactive)
same,GI50,T47D,9.57 µM (inactive)
same,GI50,PC-3,36.6 µM (inactive)
same,GI50,MDA-MB-435,3.27 µM (inactive)
same,GI50,CAKI-1,> 100 µM (inactive)
same,GI50,786-0,26.8 µM (inactive)
same,GI50,SK-MEL-28,88.1 µM (inactive)
same,GI50,COLO 205,> 100 µM (inactive)
same,GI50,EKVX,31.3 µM (inactive)
same,GI50,TK-10,34.8 µM (inactive)
same,GI50,DU-145,86.1 µM (inactive)
same,GI50,Malme-3M,> 100 µM (inactive)
same,GI50,OVCAR-3,70 µM (inactive)
same,GI50,UACC-62,40.8 µM (inactive)
same,GI50,CCRF-CEM,0.0217 µM (active)
same,GI50,MDA-MB-231,36 µM (inactive)
same,GI50,OVCAR-8,47.8 µM (inactive)
same,GI50,HL-60,< 0.01 µM (active)
same,GI50,SW-620,9.38 µM (inactive)
same,GI50,SK-MEL-5,66.8 µM (inactive)
same,GI50,LOX IMVI,50.2 µM (inactive)
same,GI50,SR,8.97 µM (inactive)
same,GI50,ACHN,72.8 µM (inactive)
same,GI50,A549,86.5 µM (inactive)
same,GI50,HCC 2998,35 µM (inactive)
same,GI50,M14,> 100 µM (inactive)
same,GI50,KM12,28.1 µM (inactive)
same,GI50,UACC-257,> 100 µM (inactive)
same,GI50,BT-549,> 100 µM (inactive)
same,GI50,SN12C,12.8 µM (inactive)
same,GI50,HOP-92,52.7 µM (inactive)
same,GI50,SK-MEL-2,34.6 µM (inactive)
same,GI50,MOLT-4,> 100 µM (inactive)
same,GI50,HOP-62,25.7 µM (inactive)
same,GI50,MCF7,32 µM (inactive)
same,GI50,RXF 393,14.3 µM (inactive)
same,GI50,SF-295,27.1 µM (inactive)
same,GI50,HCT-116,> 100 µM (inactive)
same,GI50,NCI-H460,84.7 µM (inactive)
same,GI50,IGROV-1,46.6 µM (inactive)
same,GI50,U-251,28.4 µM (inactive)
same,GI50,SNB-75,22.2 µM (inactive)
same,GI50,K562,29.8 µM (inactive)
same,GI50,SF-268,35.7 µM (inactive)
same,GI50,OVCAR-5,> 100 µM (inactive)
same,GI50,Hs-578T,42.9 µM (inactive)
same,GI50,NCI-H23,63.8 µM (inactive)
same,GI50,SNB-19,52.5 µM (inactive)
same,GI50,HCT-15,21.8 µM
same,GI50,MDA-N,3.15 µM (inactive)
same,GI50,UO-31,> 100 µM (inactive)
same,GI50,NCI-H522,88.1 µM (inactive)
same,GI50,SF-539,35.2 µM (inactive)
same,GI50,HT-29,36.7 µM (inactive)
same,GI50,NCI/ADR-RES,38.1 µM (inactive)
CN(CC(=O)O)c1ccc(/C=C/c2ccnc3ccccc23)cc1,GI50,A498,17.1 µM (inactive)
same,GI50,SK-OV-3,28.9 µM (inactive)
same,GI50,RPMI-8226,13.3 µM (inactive)
same,GI50,T47D,20.2 µM (inactive)
same,GI50,PC-3,27.4 µM (inactive)
same,GI50,MDA-MB-435,14.1 µM (inactive)
same,GI50,CAKI-1,18.5 µM (inactive)
same,GI50,786-0,28.1 µM (inactive)
same,GI50,SK-MEL-28,40 µM (inactive)
same,GI50,COLO 205,16 µM (inactive)
same,GI50,EKVX,4.47 µM (inactive)
same,GI50,TK-10,19.7 µM (inactive)
same,GI50,DU-145,33.6 µM (inactive)
same,GI50,OVCAR-3,27.9 µM (inactive)
same,GI50,UACC-62,19.6 µM (inactive)
same,GI50,CCRF-CEM,13.8 µM (inactive)
same,GI50,MDA-MB-231,27 µM (inactive)
same,GI50,OVCAR-8,27.7 µM (inactive)
same,GI50,HL-60,11.4 µM (inactive)
same,GI50,SW-620,29.4 µM (inactive)
same,GI50,SK-MEL-5,16 µM (inactive)
same,GI50,LOX IMVI,22.3 µM (inactive)
same,GI50,SR,6.93 µM (inactive)
same,GI50,ACHN,34.4 µM (inactive)
same,GI50,A549,17.5 µM (inactive)
same,GI50,HCC 2998,25.4 µM (inactive)
same,GI50,M14,22.2 µM (inactive)
same,GI50,KM12,13.2 µM (inactive)
same,GI50,UACC-257,25.4 µM (inactive)
same,GI50,BT-549,16.3 µM (inactive)
same,GI50,SN12C,25.5 µM (inactive)
same,GI50,HOP-92,22.9 µM (inactive)
same,GI50,SK-MEL-2,18.8 µM (inactive)
same,GI50,HOP-62,31.3 µM (inactive)
same,GI50,MCF7,5.02 µM (inactive)
same,GI50,RXF 393,14.8 µM (inactive)
same,GI50,SF-295,18.1 µM (inactive)
same,GI50,HCT-116,23.8 µM (inactive)
same,GI50,NCI-H460,21.4 µM (inactive)
same,GI50,IGROV-1,13.9 µM (inactive)
same,GI50,U-251,22.8 µM (inactive)
same,GI50,SNB-75,24.8 µM (inactive)
same,GI50,K562,23.7 µM (inactive)
same,GI50,SF-268,19.1 µM (inactive)
same,GI50,OVCAR-5,29.2 µM (inactive)
same,GI50,Hs-578T,25.4 µM (inactive)
same,GI50,NCI-H23,33.3 µM (inactive)
same,GI50,SNB-19,30.1 µM (inactive)
same,GI50,HCT-15,31.9 µM
same,GI50,MDA-N,12.5 µM (inactive)
same,GI50,UO-31,15.7 µM (inactive)
same,GI50,NCI-H522,5.47 µM (inactive)
same,GI50,SF-539,27.9 µM (inactive)
same,GI50,HT-29,23 µM (inactive)
same,GI50,NCI/ADR-RES,29.2 µM (inactive)
